Laboratory results published in ChEMBL document CHEMBL1201862, “PubChem BioAssay data set” (2004).
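Results reflect a 48-hour exposure of cells in 96-well plates to compound at five concentrations. GI50: concentration for 50% inhibition of growth.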 Activity calls are given as the source filed them. Cut-off read from the data, not from the text of the source: active = GI50 up to about 1.1 µM and inactive = higher.

Experiments:
Assay in all cases: inhibition of tumour cell growth, NCI panel, 48 h
OVCAR-5 = tested on: OVCAR-5
SNB-75 = tested on: SNB-75
EKVX = tested on: EKVX
K562 = tested on: K562
SF-268 = tested on: SF-268
CCRF-CEM = tested on: CCRF-CEM
IGROV-1 = tested on: IGROV-1
HL-60 = tested on: HL-60
DMS-114 = tested on: DMS-114
NCI/ADR-RES = tested on: NCI/ADR-RES
SNB-19 = tested on: SNB-19
HOP-92 = tested on: HOP-92
A549 = tested on: A549
NCI-H23 = tested on: NCI-H23
Malme-3M = tested on: Malme-3M
A498 = tested on: A498
DU-145 = tested on: DU-145
Hs-578T = tested on: Hs-578T
MDA-N = tested on: MDA-N
MDA-MB-231 = tested on: MDA-MB-231

| Structure (SMILES) | GI50 (OVCAR-5) | GI50 (SNB-75) | GI50 (EKVX) | GI50 (K562) | GI50 (SF-268) | GI50 (CCRF-CEM) | GI50 (IGROV-1) | GI50 (HL-60) | GI50 (DMS-114) | GI50 (NCI/ADR-RES) | GI50 (SNB-19) | GI50 (HOP-92) | GI50 (A549) | GI50 (NCI-H23) | GI50 (Malme-3M) | GI50 (A498) | GI50 (DU-145) | GI50 (Hs-578T) | GI50 (MDA-N) | GI50 (MDA-MB-231) |
| --- | --- | --- | --- | --- | --- | --- | --- | --- | --- | --- | --- | --- | --- | --- | --- | --- | --- | --- | --- | --- |
| CC1(C)N=C(N)N=C(N)N1c1ccc(OCCCOc2ccccc2)c(Cl)c1 | 0.295 µM (active) | 0.948 µM (active) | 0.303 µM (active) | 2.48 µM (inactive) | 0.0585 µM (active) | 0.175 µM (active) | < 0.0301 µM (active) | 0.0322 µM (active) | 0.076 µM (active) | > 100 µM (inactive) | 0.0379 µM (active) | 0.409 µM (active) | 0.0473 µM (active) | 0.239 µM (active) | 0.49 µM (active) | 1.4 µM (inactive) | – | – | – | – |
| N#CC(C(=O)CCC(=O)Nc1cccc(Cl)c1)c1ccccc1 (stereo unspecified) | > 100 µM (inactive) | > 100 µM (inactive) | > 100 µM (inactive) | > 100 µM (inactive) | > 100 µM (inactive) | > 100 µM (inactive) | > 100 µM (inactive) | > 100 µM (inactive) | > 100 µM (inactive) | – | 4.05 µM (inactive) | > 100 µM (inactive) | > 100 µM (inactive) | > 100 µM (inactive) | > 100 µM (inactive) | > 100 µM (inactive) | – | – | – | – |
| Cc1[nH]c2cc([N+](=O)[O-])ccc2c1[N+](=O)[O-] | 27.2 µM (inactive) | 19 µM (inactive) | 11.7 µM (inactive) | 22.2 µM (inactive) | 22.1 µM (inactive) | 16.8 µM (inactive) | 26.2 µM (inactive) | 20.6 µM (inactive) | 9.93 µM (inactive) | – | 18.7 µM (inactive) | 3.9 µM (inactive) | 17.1 µM (inactive) | 17.7 µM (inactive) | 13.9 µM (inactive) | 17.3 µM (inactive) | – | – | – | – |
| COc1cc2c(oc(=O)c3c4occc4cc(OC)c23)c2cccc(OCc3ccccc3)c12 | > 100 µM (inactive) | 40 µM (inactive) | > 100 µM (inactive) | > 100 µM (inactive) | > 100 µM (inactive) | > 100 µM (inactive) | > 100 µM (inactive) | 65.8 µM (inactive) | > 100 µM (inactive) | – | > 100 µM (inactive) | > 100 µM (inactive) | > 100 µM (inactive) | > 100 µM (inactive) | 35.6 µM (inactive) | 34.4 µM (inactive) | – | – | – | – |
| C=C(CN(C)C)C(=O)c1cc(C)ccc1C | 14.8 µM (inactive) | 17.2 µM (inactive) | 26.2 µM (inactive) | 0.791 µM (active) | 20.3 µM (inactive) | 0.345 µM (active) | 18 µM (inactive) | 0.232 µM (active) | 5.02 µM (inactive) | 18.3 µM (inactive) | 19.9 µM (inactive) | 2.81 µM (inactive) | 19.7 µM (inactive) | 11.4 µM (inactive) | 2.5 µM (inactive) | 23.6 µM (inactive) | 14.4 µM (inactive) | 28.7 µM (inactive) | 6.84 µM (inactive) | 8.83 µM (inactive) |
| COc1ccc(C2=C(Cl)c3cc(OC)c(OC)cc3C2OC)cc1OC (stereo unspecified) | > 100 µM (inactive) | > 100 µM (inactive) | > 100 µM (inactive) | 5.74 µM (inactive) | > 100 µM (inactive) | 50.2 µM (inactive) | > 100 µM (inactive) | 8.11 µM (inactive) | 14.2 µM (inactive) | – | > 100 µM (inactive) | > 100 µM (inactive) | > 100 µM (inactive) | > 100 µM (inactive) | > 100 µM (inactive) | > 100 µM (inactive) | – | – | – | – |
| O=C(/C(=C\c1ccccc1)CN1CCOCC1)c1ccc(Br)cc1 | 3.48 µM (inactive) | 10.8 µM (inactive) | 3.06 µM (inactive) | 1.15 µM (inactive) | 3.63 µM (inactive) | 0.714 µM (active) | 4.97 µM (inactive) | 1.5 µM (inactive) | 1.78 µM (inactive) | – | 5.79 µM (inactive) | 5.47 µM (inactive) | 6.64 µM (inactive) | 3.24 µM (inactive) | 1.78 µM (inactive) | 6.12 µM (inactive) | – | – | – | – |
| COc1ccc(/C=C2/C(=O)N(C(=O)c3ccccc3O)N=C2C)cc1OC | 3.9 µM (inactive) | – | 1.38 µM (inactive) | – | 0.556 µM (active) | 0.337 µM (active) | 0.133 µM (active) | 0.687 µM (active) | 0.301 µM (active) | 0.614 µM (active) | – | 0.326 µM (active) | 0.33 µM (active) | 0.248 µM (active) | 0.849 µM (active) | 0.121 µM (active) | 0.643 µM (active) | – | 0.489 µM (active) | > 100 µM (inactive) |
| O=CN/C=C/c1cccc(O)c1 | 74.6 µM (inactive) | > 69.3 µM (inactive) | 69.2 µM (inactive) | > 75.7 µM (inactive) | > 57.5 µM (inactive) | 61.1 µM (inactive) | 55 µM (inactive) | 38.5 µM (inactive) | > 100 µM (inactive) | 52.2 µM (inactive) | 70.1 µM (inactive) | 55.2 µM (inactive) | 54.5 µM (inactive) | 52.4 µM (inactive) | > 82.8 µM (inactive) | > 64.3 µM (inactive) | 57.5 µM (inactive) | > 55.2 µM (inactive) | 46 µM (inactive) | 49.8 µM (inactive) |
| NC(=O)c1cc(N2CC2)c([N+](=O)[O-])cc1[N+](=O)[O-] [TRETAZICAR] | > 100 µM (inactive) | – | > 100 µM (inactive) | > 100 µM (inactive) | > 100 µM (inactive) | > 100 µM (inactive) | > 100 µM (inactive) | > 100 µM (inactive) | > 100 µM (inactive) | > 200 µM (inactive) | > 100 µM (inactive) | > 100 µM (inactive) | > 184 µM (inactive) | > 100 µM (inactive) | > 129 µM (inactive) | > 66.7 µM (inactive) | > 200 µM (inactive) | > 200 µM (inactive) | > 200 µM (inactive) | > 200 µM (inactive) |
